Converted amounts (≈) assume the structure as drawn.
Tests used:
Water solubility (pH 5) = conditions: for solubility: pH 5, water; for Water solubility: pH 5
[1] = Pharmacokinetic study of Compound (VI) after topical administration (Example 14); type: in vivo, Dutch-Belted rabbits; conditions: BID for three days vs QD for three days, 1% dose
Description: A formulation prepared as described in example 13 was used. Compound (VI) was administered topically (50 μL) to rabbits either as BID for three days or QD for three days dose regimen (1% dose).

[2] = tested on: VEGF-induced retinal permeability; assay: Ocular model of retinal edema following eyedrops (Evans Blue albumin leakage); type: in vivo; conditions: mice
Description: Formulations prepared as described in Examples 20 and 21 were used in these studies. Topical eyedrops of Compound (V) (one time or three times a day), or Compound (VI) (single eye drop) were administered to mice. After 1-2 hr, VEGF was injected intravitreally into mouse eyes. An hour later Evans Blue dye was injected intravenously into the tail vein. About 4 hrs later animals were sacrificed, blood was collected and eyes were enucleated. VEGF-induced retinal permeability as measured by albumin leakage in the eye was measured.

[3] = tested on: choroidal neovascularization; assay: Laser-induced choroidal neovascularization model; type: in vivo, C57BL/6 mice; conditions: for Reduction of area of neovascularization compared to control: topical
Description: After 2 weeks, mice were perfused with fluorescein-labeled dextran, and choroidal flatmounts were analyzed using image analysis software to recognize fluorescently stained neovascularization and calculate the total area of neovascularization per retina.

[4] = Phospholipid affinity PC:Drug (molar); type: physicochemical; conditions: molar ratio PC:Drug
[5] = Pharmacokinetic study of Compounds (X) and (VIII) after topical administration (Example 12); type: in vivo, Dutch-Belted rabbits; conditions: Compound (V) after prodrug Compound (VIII) delivered topically to the eye
Description: Formulations prepared as described in Example 9 and 11 were used. Compounds (X) and (VIII) were administered as eyedrops (50 μL) either as QD for three days or BID for three days as the dose regimen.
The retinal concentrations varied depending on the formulation used. The cLogD at pH of 7.4 for Compound (VIII) is 0.14 while for Compound (X) is 3.54.

[6] = Pharmacokinetic study of Compound (XI) after topical administration (Example 3); type: in vivo, Dutch-Belted rabbits; conditions: eyedrops 1% API, 50 μL BID for 3 days; rabbit
Description: A formulation was prepared as in Example 1 but using Compound (XI) instead of Compound (V). Compound (XI) was administered as eyedrops (1% API, 50 μL) BID for 3 days. On day 3 following a single dose, rabbits were sacrificed, enucleated and various ocular tissues (retina, choroid, cornea, etc) collected. Concentrations in the tissues were measured using LC/MS/MS, following tissue homogenization and acetonitrile precipitation. PK data analysis was conducted using WINNONLIN program. […] Half-life was long at approximately 8 hours.

[7] = Pharmacokinetic study of Compound (VI) after topical administration (Example 8); type: in vivo, Lone Evans rat pups; conditions: Compound (V) analysed after single 10 μL eyedrops of 0.2, 0.5 or 1% Compound (VI)
Description: Formulations prepared as described in Example 5 were used. Rat pups were administered single 10 μL eyedrops of 0.2, 0.5 or 1% Compound (VI) dose. Eye tissues were collected at various time points for Compound (V) analysis using LC/MS/MS. […] Half-life of Compound (V) ranged from 5 to 8 hours in the choroids.

[8] = Pharmacokinetic study of Compound (V) after topical administration (Example 4); type: in vivo, Dutch-Belted rabbits; conditions: 50 μL topical, 0.5% dose, QD for one day; rabbit
Description: A formulation containing Compound (V) prepared as described in Example 1 was used in this experiment. 50 μL of Compound (V) (QD for one day) was administered topically to rabbits at 0.5% dose. Ocular tissues such as choroid, retina, sclera and cornea were collected and concentrations measured. Choroidal concentrations were 4 fold higher than retinal concentration.

Row | solubility (Water solubility (pH 5); water) | Compound | further results
1 | < 100 µg/mL | Nc1nc(O)c2nc(-c3cccc(O)c3)c(-c3cccc(O)c3)nc2n1 [XXI] | –
2 | < 100 µg/mL | C=CC[C@@H]1/C=C(\C)C[C@H](C)C[C@H](OC)[C@H]2O[C@@](O)(C(=O)C(=O)N3CCCC[C@H]3C(=O)O[C@H](/C(C)=C/[C@@H]3CC[C@@H](O)[C@H](OC)C3)[C@H](C)[C@@H](O)CC1=O)[C@H](C)C[C@@H]2OC [Tacrolimus, reference compound] | –
3 | < 100 µg/mL | Cc1cc(-c2cc(OC(=O)C(C)C)ccc2Cl)cc2nnc(Nc3ccc(OCCN4CCCC4)cc3)nc12 [XX] | –
4 | < 100 µg/mL | Cc1cc(-c2cc(O)ccc2Br)cc2nnc(Nc3ccc(S(=O)(=O)NCCN4CCCC4)cc3)nc12 [XV] | –
5 | < 100 µg/mL | CC(=O)Oc1ccc(Cl)c(-c2cc(C)c3nc(Nc4ccc(OCCN5CCCC5)cc4)nnc3c2)c1 [XVII] | –
6 | < 100 µg/mL | Cc1cc(-c2c(Cl)cccc2Cl)cc2nnc(Nc3ccc(OCCN4CCCC4)cc3)nc12 [XI] | –
7 | < 100 µg/mL | Cc1cc(-c2c(Cl)ccc(O)c2Cl)cc2nnc(Nc3ccc(S(=O)(=O)NCCN4CCCC4)cc3)nc12 [XVI] | –
8 | < 100 µg/mL | Cc1cccc(C)c1-c1cc(C)c2nc(Nc3ccc(S(=O)(=O)NCCN4CCCC4)cc3)nnc2c1 [XIII] | –
9 | < 100 µg/mL | Cc1cc(-c2cc(OC(=O)C(C)(C)C)ccc2Cl)cc2nnc(Nc3ccc(OCCN4CCCC4)cc3)nc12 [X] | –
10 | < 100 µg/mL | Cc1cc(-c2cc(OC(=O)c3ccccc3)ccc2Cl)cc2nnc(Nc3ccc(S(=O)(=O)NCCN4CCCC4)cc3)nc12 [XVIII] | –
11 | > 2000 µg/mL | Clc1ccc(Nc2nnc(Cc3ccncc3)c3ccccc23)cc1 [Vatalanib, reference compound] | Phospholipid affinity PC: Drug (molar) [4]: Not stable
12 | < 100 µg/mL | Cc1cc(-c2cc(O)ccc2Cl)cc2nnc(Nc3ccc(S(=O)(=O)NCCN4CCCC4)cc3)nc12 [VII] | –
13 | < 100 µg/mL | Cc1ccc(C(=O)Oc2ccc(Cl)c(-c3cc(C)c4nc(Nc5ccc(OCCN6CCCC6)cc5)nnc4c3)c2)cc1 [XIX] | –

The next lines start with the compound.

Row | Compound | solubility (Water solubility (pH 5); water) | further results
14 | CC(=O)Nc1nnc(S(N)(=O)=O)s1 [Acetazolamide, reference compound] | < 1000 µg/mL | –
15 | Cc1cc(-c2cc(OC(=O)c3ccccc3)ccc2Cl)cc2nnc(Nc3ccc(OCCN4CCCC4)cc3)nc12 [VI] | < 100 µg/mL | Back of the eye concentrations, dependence on dose regimen [1]: linear; Inhibition of retinal leak ([2]; QD eyedrop administration): 100%; Reduction of area of neovascularization compared to control ([3]; 50 μg per eye): approximately 47%; Reduction of area of neovascularization compared to control ([3]; 150 μg per eye): approximately 35%; Effect on choroidal neovascularization (FIG. 2) ([3]; topical administration): prevents choroidal neovascularization
16 | CCN(CC)CCNC(=O)c1c(C)[nH]c(/C=C2\C(=O)Nc3ccc(F)cc32)c1C [Su11248, reference compound] | > 1000 µg/mL | –
17 | Brc1c(NC2=NCCN2)ccc2nccnc12 [Brimonidine, reference compound] | > 2000 µg/mL | –
18 | CC(C)CCC[C@@H](C)[C@H]1CC[C@H]2[C@@H]3CC=C4C[C@@H](O)CC[C@]4(C)[C@H]3CC[C@]12C [Cholesterol, reference compound] | < 1000 µg/mL | –
19 | Tropicamide [reference compound] | – | Water solubility (Water solubility (pH 5)): <1 mg/mL
20 | CP(C)(=O)c1ccc(Nc2nc(C3CCCC3)nc3c2ncn3CCc2cccc(O)c2)cc1 [AP23464, reference compound] | – | Water solubility (Water solubility (pH 5)): >0.1 mg/mL
21 | COc1cc(Nc2c(C#N)cnc3cc(OCCCN4CCN(C)CC4)c(OC)cc23)c(Cl)cc1Cl [SKI606, reference compound] | < 1000 µg/mL | –
22 | Cc1cc(-c2cc(O)ccc2Cl)cc2nnc(Nc3ccc(OCCN4CCCC4)cc3)nc12 [V] | < 100 µg/mL | Amount of API recovered from the retina and the choroid [5]: No measurable amount; Concentrations in the choroid [6]: at the μM level; Concentrations in the retina, dose dependence [7]: non-linear; Mean AUC in the choroid, dose dependence [7]: linear; Inhibition of retinal leak ([2]; QD eyedrop administration): 50%; Inhibition of retinal leak ([2]; TID eyedrop dosing): ~80%; Choroidal concentration relative to retinal concentration [8]: 4 fold; Half-life (comparison) [8]: about two times longer
23 | Cc1cccc(C)c1-c1cc(C)c2nc(Nc3ccc(OCCN4CCCC4)cc3)nnc2c1 [IV] | < 100 µg/mL | –
24 | CC(C)NCC(O)COc1cccc2ccccc12 (stereo not drawn) [propanolol, reference compound] | – | solubility (Water solubility (pH 5)): ~100 µg/mL (≈ 386 µM)
25 | COc1ccc(Cl)c(Nc2ncnc3cc(OCC4CCN(C)CC4)c(OC)cc23)c1 [AZM475271, reference compound] | < 100 µg/mL | Phospholipid affinity PC: Drug (molar) [4]: 50.73
26 | Cc1ccc(-c2nn(C(C)(C)C)c3ncnc(N)c23)cc1 [PP1, reference compound] | – | Water solubility (Water solubility (pH 5)): <0.1 mg/mL
27 | O=C(Nc1cnc(Nc2cccc(OCCN3CCCC3)c2)nc1)c1c(Cl)cccc1Cl [I] | < 100 µg/mL | –
28 | CC1(C)O[C@@H]2C[C@H]3[C@@H]4CCC5=CC(=O)C=C[C@]5(C)[C@@]4(F)[C@@H](O)C[C@]3(C)[C@]2(C(=O)CO)O1 [TAA, reference compound] | – | Water solubility (Water solubility (pH 5)): <0.1 mg/mL
29 | Cc1cc(-c2cc(OP(=O)([O-])[O-])ccc2Cl)cc2nnc(Nc3ccc(OCCN4CCCC4)cc3)nc12.[Na+].[Na+] [XII] | < 100 µg/mL | –
30 | Cc1cc(Nc2ncc3cc(-c4c(Cl)cccc4Cl)c(=O)n(C)c3n2)ccc1F [PD180970, reference compound] | – | Water solubility (Water solubility (pH 5)): <<0.1 mg/mL

— US20060292203A1, “Methods and compositions for the treatment of ocular disorders” (TargeGen, Inc., priority 2005, published 2006)
